Reference: patent US7387778B2, “Therapeutic methods and compositions for the treatment of impaired interpersonal and behavioral disorders” (Institut Pasteur, priority 1999, dated 2008)

Key:
male Wistar/AF EOPS rats [1] = experiment: Behavioral despair test (forced swimming); format: in vivo, rat; conditions: for Immobility period, Test session / Immobility period, Retest session: first 5 minutes; for Immobility period, Test session: test is before any treatment
Description: Forty male Wistar/AF EOPS rats (Iffa-Credo Breeding Centre, 69-St-Germain sur l'Arbresle, France), weighing 300 to 320 g, were used. On arrival, the rats were labelled and distributed randomly in pairs into type F polycarbonate cages (48×27×20 cm, U.A.R., 91-Epinay-Sur-Orge, France). The animals were stabled in an air-conditioned animal house, at a temperature of 22-24° C. The rats were given food (M25 croquettes, Ets Piétrement, 77-Provins, France) and drink ad libitum and were subjected to a 12-hour light-darkness cycle.
After one week of familiarization with the laboratory conditions, the rats were weighed and distributed randomly into 3 treatment groups (n=12). The rats of the different groups will all be handled in the same way and under the same conditions.
The behavioral despair test takes place over two sessions: • a 15-minute test session; • a 5-minute retest session, performed 24 hours later.
During the test session, the rat was subjected to forced swimming in a Plexiglas cylinder (20 cm in diameter and 50 cm in height, containing 25 cm of water at 25° C.) and its behavior was recorded over 15 minutes. At the end of the test, the rat was removed from the water, dried gently, treated and then returned to its dwelling cage.
During the retest, 24 hours later, the rat was again placed in the water and its behavior was recorded over 5 minutes.
The recorded variables are the period of immobility during the first 5 minutes of both the test and the retest.
The peptide FG-005 was suspended at a rate of 500 μg per 5 ml of 0.01N acetic acid, and then diluted with PBS to be administered at doses of 50 and 100 μg/kg via the i.v. route into the dorsal caudal vein of the rat, immediately after the test and 300 and 5 minutes before the retest the following day (Table X). 8-OH-DPAT was injected i.p.
A bilateral probability paired t test was used to compare the two periods of immobility of the test with those of the retest in each of the groups. The results are expressed as an average standard error of mean (SEM) (Table XI and FIG. 20). The statistical and graphical processing was performed using Statview5 and DeltaGraph® Pro 3.5 software.

male rats [2] = conditions: high doses; cited from earlier work
male Wistar/AF EOPS rats [3] = experiment: Behavioral despair test (forced swimming); format: in vivo, rat; conditions: 100 mg/kg; difference not statistically significant
[4] = system: male rats with sexually receptive female; experiment: Dose-response relationship of FG-005 on male rat sexual behavior; format: in vivo; conditions: for total number of mounts with or without intromission, Mean: 45-min observation
Description: Effect of increasing concentrations of FG-005 peptide (SMR1-QHNPR) given i.v. on the number of sexual intercourse episodes of male rats with sexually receptive female, was assessed. All of the […] parameters were analyzed using one-way analysis of variance (ANOVA) for the differences between treated groups and followed by the multiple comparison test of Fisher (PLSD Fisher) to compare each group of FG-005-injected rats with the control group (vehicle-injected rats). Nine to ten rats were used for each group and P value of less than 0.005 was considered as significant for both tests.
This is appreciated by the significant dose-dependent increase of sexual interactions (mounts, mounts with intromission and mounts per ejaculation) during (first ejaculation latency and interejaculatory latency) episodes of sexual intercourse.

male Wistar rats [5] = experiment: Irwin test; format: in vivo, rat; conditions: injected into tail vein, escalating doses
Description: An Irwin test was performed on 12 male Wistar rats (Iffa Credo, L'Arbresles, France), weighing 260-280 g. They were housed in groups of 4 in a climate controlled room with a 12 h light:dark cycle (light 8:00 PM-8:00 AM) and had access to food and water ad libitum. After a seven day acclimatization period, the rats were weighed, identified and randomly assigned to one of the four treatment groups. The drug was injected to the tail vein of the rats according to the group dose.
Observations were performed 15, 30, 60 and 120 minutes after administration. Among the most noticeable results are the results concerning the awareness state of the rats. […] Rats injected FG-005 are less stressed as shown by startle response test (FIG. 2), and by the abdominal tone (FIG. 3).

male Wistar rats [6] = experiment: Behavior of male rats in the presence of receptive females; format: in vivo, rat
Description: Behavior tests were performed on 12 male Wistar rats (Iffa Credo, L'Arbresles, France), weighing 260-280 g. They were housed in groups of 4 in a climate controlled room with a 12-h light:dark cycle and had access to food and water ad libitum. After seven days acclimatization period, the rats were weighed, identified and randomly assigned to one of the four treatment groups. The rats were familiarized once with female rats which had been brought to sexual receptivity by injecting estradiol benzoate for 4 days (5 μg/0.5 ml oil, s.c. once daily). Behavioral testing was performed under blind conditions in a dimlight environment 2 hours after the onset of the dark phase of the light/dark cycle. Behavior was assessed by placing the male rat in a plexiglass cage (50×30×20 cm) five minutes before a receptive female was presented. All of the tests on rats were recorded on a VHS-videotape. The recorded parameters were: number of ejaculations, latency of first mount, latency of first ejaculation, number of mounts, postejaculatory interval, avoidance behavior patterns, awareness of other rats presence, initiation or response to social interaction, interest in other rat, self-care, willingness to enter into relationship. All of the quantitative results were analyzed using the Kruskal-Wallis test followed by the Mann-Whitney U-Test to compare each treated group with the control group. The statistical analyzes were carried out using the Statview 4.1 statistical package.

male rats [7] = experiment: First two post ejaculatory intervals (PEI); format: in vivo, rat
Description: All quantitative results are statistically analyzed using a Krukal-Wallis test (KWT), as a between-group variable, followed by Mann-Whitney U-test (MWT) to compare the treated group to control one. Friedman test (FT), as within-group variable, was used for repeated measures across the first three ejaculatory series, followed by Wilcoxon (WT). Data are reported as mean ±SEM. For all statistical evaluations, the level of significance was set at p<0.05. All statistical analyses were carried out using the Statview™ 4.5 statistical package (Abacus Concepts, Inc, Berkeley, Calif.).
Masculine sociosexual behaviors other than copulatory acts were measured and analyzed during the two successive post-ejaculatory intervals. Among these are pursuit of the female, sniffing, grooming, running behind the partner in close contact and anogenital exploration (sniffing, licking and grooming the partner). […] Thus, for a similar amount of time in PEI duration compared to controls, the 3 μg/kg-treated rats spent during this interval, 7 to 10 fold more amount of time to pursue and groom the female.

CCCN(CCC)C1CCc2cccc(O)c2C1 (centres unmarked) [8-OH-DPAT, reference compound]
Immobility period, Test session (male Wistar/AF EOPS rats [1]; 0.5 mg/kg i.p. group): 109.20
Immobility period, Retest session (male Wistar/AF EOPS rats [1]; 0.5 mg/kg i.p., 1440, 300, 30 min before retest): 31.60
period of immobility, retest compared with test (male Wistar/AF EOPS rats [1]; 8-OH-DPAT 0.5 mg/kg i.p.): significantly reduce their period of immobility
anti-resignation effect (male Wistar/AF EOPS rats [1]; reference substance, 0.5 mg/kg i.p.): significant anti-resignation effect

CC[C@H](C)[C@@H]1NC(=O)[C@H](Cc2ccc(O)cc2)NC(=O)[C@@H](N)CSSC[C@@H](C(=O)N2CCC[C@H]2C(=O)N[C@@H](CC(C)C)C(=O)NCC(N)=O)NC(=O)[C@H](CC(N)=O)NC(=O)[C@H](CCC(N)=O)NC1=O [oxytocin]
locomotion (male rats [2]): decrease locomotion

Gln-His-Asn-Pro-Arg (QHNPR; This is a peptide sequence that was designed to achieve therapeutic effects in mammals.) [FG-005, synthesized pentapeptide with N-terminal Glutamine]
Immobility period, Retest session (male Wistar/AF EOPS rats [1]; 50 μg/kg i.v., 1440, 300, 5 min before retest): 141.20 ± 21.28
period of immobility, retest compared with test (male Wistar/AF EOPS rats [1]; 50 μg/kg, difference not statistically significant): increase their period of immobility
Immobility period, Retest session (male Wistar/AF EOPS rats [1]; 100 μg/kg i.v., 1440, 300, 5 min before retest): 121.50 ± 17.47
behavioral resignation (antidepressant effect) (male Wistar/AF EOPS rats [1]; 50 and 100 μg/kg, i.v.): no behavioral resignation
Immobility period, Test session (male Wistar/AF EOPS rats [1]; FG-50 group, 50 μg/kg i.v.): 119.00 ± 13.79
Immobility period, Test session (male Wistar/AF EOPS rats [1]; FG-100 group, 100 μg/kg i.v.): 138.30 ± 11.03
period of immobility, retest compared with test (male Wistar/AF EOPS rats [3]): reduce it
mean number of mounts per ejaculation ([4]; 0.3 μg/kg i.v.): 20.220
number of mounts before the first ejaculation, Mean ([4]; 0.3 μg/kg i.v.): 31.111
number of mounts before the fourth ejaculation (interejaculatory interval), Mean ([4]; 0.3 μg/kg i.v.): 11.500
number of mounts before the third ejaculation (interejaculatory interval), Mean ([4]; 0.3 μg/kg i.v.): 13.444
number of mounts with intromission, Mean ([4]; 0.3 μg/kg i.v.): 77.111
total number of mounts with or without intromission, Mean ([4]; 0.3 μg/kg i.v.): 81.778
mean number of mounts per ejaculation ([4]; 1 μg/kg i.v.): 26.911
number of mounts before the first ejaculation, Mean ([4]; 1 μg/kg i.v.): 33.444
number of mounts before the fourth ejaculation (interejaculatory interval), Mean ([4]; 1 μg/kg i.v.): 19.143
number of mounts before the third ejaculation (interejaculatory interval), Mean ([4]; 1 μg/kg i.v.): 18.333
number of mounts with intromission, Mean ([4]; 1 μg/kg i.v.): 90.556
total number of mounts with or without intromission, Mean ([4]; 1 μg/kg i.v.): 96.667
first ejaculation latency ([4]; 3 μg/Kg vs vehicle-injected rats): increased significantly
total number of ejaculations ([4]; 3 μg/Kg, 45 min observation period): lower than that of vehicle-treated rats
mean number of mounts per ejaculation ([4]; 3 μg/kg i.v.): 36.013
number of mounts before the first ejaculation, Mean ([4]; 3 μg/kg i.v.): 37.500
number of mounts before the fourth ejaculation (interejaculatory interval), Mean ([4]; 3 μg/kg i.v.): 24.167
number of mounts before the third ejaculation (interejaculatory interval), Mean ([4]; 3 μg/kg i.v.): 22.889
number of mounts with intromission, Mean ([4]; 3 μg/kg i.v.): 97.700
total number of mounts with or without intromission, Mean ([4]; 3 μg/kg i.v.): 110.100
third ejaculation latency ([4]; dose-related manner): tended also to increase
second ejaculation latency ([4]; pronounced effect at 1 and 3 μg/Kg): significant dose-related prolongation
aggressive impulse behavior ([4]; treated vs control rats): loss of aggressive impulse behavior
abdominal tone (FIG. 3) (male Wistar rats [5]): less stressed
aggressiveness (male Wistar rats [5]): not associated with an increase of aggressiveness
finger approach test (male Wistar rats [5]): increased interest
startle response test (FIG. 2) (male Wistar rats [5]): less stressed
vocalization when third parties approach (male Wistar rats [5]): increased vocalization
wire maneuver test (male Wistar rats [5]): Significant response
tail pinch test (FIGS. 4-7) (male Wistar rats [5]; 15, 30, 60, 120 minutes): less reactivity to nociceptive stimuli
awareness state / sleep (FIG. 1) (male Wistar rats [5]; after 2 hours of tests): much less likely to fall asleep
Latency of the first mount, Mean (male Wistar rats [6]; 3 μg/kg): 93.333 s
latency of first mounts (in words) (male Wistar rats [6]; 3 μg/kg): significantly increased latency
number of ejaculations in 45 minutes, Mean (male Wistar rats [6]; 3 μg/kg): 5.333
refractory period between the second ejaculation and the next mount, Mean (male Wistar rats [6]; 3 μg/kg): 311.333 s
Latency of the first mount, Mean (male Wistar rats [6]; 15 μg/kg): 23.000 s
number of ejaculations in 45 minutes, Mean (male Wistar rats [6]; 15 μg/kg): 4.000
refractory period between the second ejaculation and the next mount, Mean (male Wistar rats [6]; 15 μg/kg): 412.000 s
Latency of the first mount, Mean (male Wistar rats [6]; 30 μg/kg): 13.667 s
number of ejaculations in 45 minutes, Mean (male Wistar rats [6]; 30 μg/kg): 4.667
refractory period between the second ejaculation and the next mount, Mean (male Wistar rats [6]; 30 μg/kg): 373.667 s
avoidance symptoms during refractory periods (male Wistar rats [6]; treated vs control rats): loss of avoidance symptoms
duration of refractory periods (in words) (male Wistar rats [6]; treated vs control rats): shortened
interest in the other rat after ejaculation (male Wistar rats [6]; treated vs non-treated rats): interest is maintained
number of episodes of intercourse (number of ejaculations in 45 minutes, in words) (male Wistar rats [6]; treated vs non-treated rats): significantly increased
self-care, attention to personal toilet after each penetration (male Wistar rats [6]; treated vs non-treated rats): increased
duration of the first PEI (male rats [7]; 1 μg/kg vs control): significantly longer
duration of the second PEI (male rats [7]; 0.3, 1 and 3 μg/kg): not significantly influenced
duration of male socio-sexual behaviors during the first and second PEI (male rats [7]; 0.3, 1 and 3 μg/kg vs controls): significantly more time
duration of male immobility during the first and second PEI (male rats [7]; 0.3, 1 and 3 μg/kg vs vehicle controls): significantly less time
